Measured values as given in patent US12447153B2, “HER2 mutation inhibitors” (Array BioPharma Inc., priority 2021, dated 2025).
pIC50: −log10 of the molar value.

Columns and labels:
BCRP = BCRP (Homo sapiens (Human), UniProt Q9UNQ0); experiment: BCRP MDCKII efflux assay (Assay 7); assay type: in vitro ADME; conditions: dog; efflux ratio Papp(B-A)/Papp(A-B), BCRP MDCKII cells; read-out: Assay 7 Pe Ratio
Protocol: Assay conditions included with and without the BCRP-specific inhibitor, KO143, at a concentration of 0.3 μM to ascertain the contribution of BCRP to the efflux value of the test compound.
Final organic concentration in the assay was 1%.

EGFR wild type (EGFR WT) = EGFR wild type (EGFR WT) (Homo sapiens (Human), UniProt P00533); experiment: Cellular Phosphorylation Assay, Assay 5 (EGF-stimulated EGFR phosphorylation, NIH 3T3 cells); assay type: cell-based
ErbB2 WT = ErbB2 WT (Homo sapiens (Human), UniProt P04626); experiment: ErbB Enzyme Assay (HTRF KinEASE-TK), Assay 2; assay type: biochemical
[1] = target: ErbB2 with Exon 20 YVMA insertion (HER2-YVMA) (Homo sapiens (Human), UniProt P04626, INS775YVMA); experiment: Cellular Phosphorylation Assay, Assay 4 (constitutive ErbB2 phosphorylation, NIH 3T3 cells); assay type: cell-based
EGFR = EGFR (Homo sapiens (Human), UniProt P00533); experiment: ErbB Enzyme Assay (HTRF KinEASE-TK), Assay 3; assay type: biochemical
[2] = EGF-stimulated EGFR WT phosphorylation
[3] = cellular EGFR WT phosphorylation, EGF-stimulated
[4] = cellular ErbB2 YVMA phosphorylation

Sequence of ErbB2 WT (P04626 23-1255): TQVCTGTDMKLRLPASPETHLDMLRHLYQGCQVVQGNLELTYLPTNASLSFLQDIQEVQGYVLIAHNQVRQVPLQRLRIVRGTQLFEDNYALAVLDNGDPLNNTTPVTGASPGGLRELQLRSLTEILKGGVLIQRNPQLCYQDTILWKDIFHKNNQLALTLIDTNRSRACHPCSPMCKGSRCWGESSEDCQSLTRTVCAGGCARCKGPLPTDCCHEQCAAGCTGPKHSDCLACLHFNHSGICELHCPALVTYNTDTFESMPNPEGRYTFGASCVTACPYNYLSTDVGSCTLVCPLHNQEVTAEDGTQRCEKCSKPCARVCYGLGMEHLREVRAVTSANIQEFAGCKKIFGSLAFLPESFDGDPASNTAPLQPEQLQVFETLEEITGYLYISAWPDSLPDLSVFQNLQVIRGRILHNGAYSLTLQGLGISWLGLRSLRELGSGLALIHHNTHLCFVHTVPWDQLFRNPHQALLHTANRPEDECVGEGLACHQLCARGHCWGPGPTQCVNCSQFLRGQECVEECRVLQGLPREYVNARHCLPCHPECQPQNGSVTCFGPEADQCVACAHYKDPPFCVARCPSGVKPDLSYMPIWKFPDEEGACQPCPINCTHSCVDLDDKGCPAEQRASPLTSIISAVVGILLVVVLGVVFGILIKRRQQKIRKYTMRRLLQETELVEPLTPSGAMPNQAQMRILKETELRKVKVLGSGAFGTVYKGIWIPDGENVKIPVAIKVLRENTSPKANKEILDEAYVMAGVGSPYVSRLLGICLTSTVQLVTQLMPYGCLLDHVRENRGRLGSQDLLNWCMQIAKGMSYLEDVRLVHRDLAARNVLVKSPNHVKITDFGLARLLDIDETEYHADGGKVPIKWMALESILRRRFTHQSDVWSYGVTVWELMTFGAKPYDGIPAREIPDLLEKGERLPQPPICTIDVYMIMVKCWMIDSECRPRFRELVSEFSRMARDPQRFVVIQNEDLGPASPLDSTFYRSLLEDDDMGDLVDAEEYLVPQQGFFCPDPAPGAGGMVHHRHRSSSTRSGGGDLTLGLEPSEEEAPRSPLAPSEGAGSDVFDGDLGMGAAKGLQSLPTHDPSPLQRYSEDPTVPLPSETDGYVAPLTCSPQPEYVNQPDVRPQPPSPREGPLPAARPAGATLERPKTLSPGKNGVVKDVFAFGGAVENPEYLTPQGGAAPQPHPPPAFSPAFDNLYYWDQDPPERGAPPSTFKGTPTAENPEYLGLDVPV
Sequence of BCRP (Q9UNQ0 whole entry): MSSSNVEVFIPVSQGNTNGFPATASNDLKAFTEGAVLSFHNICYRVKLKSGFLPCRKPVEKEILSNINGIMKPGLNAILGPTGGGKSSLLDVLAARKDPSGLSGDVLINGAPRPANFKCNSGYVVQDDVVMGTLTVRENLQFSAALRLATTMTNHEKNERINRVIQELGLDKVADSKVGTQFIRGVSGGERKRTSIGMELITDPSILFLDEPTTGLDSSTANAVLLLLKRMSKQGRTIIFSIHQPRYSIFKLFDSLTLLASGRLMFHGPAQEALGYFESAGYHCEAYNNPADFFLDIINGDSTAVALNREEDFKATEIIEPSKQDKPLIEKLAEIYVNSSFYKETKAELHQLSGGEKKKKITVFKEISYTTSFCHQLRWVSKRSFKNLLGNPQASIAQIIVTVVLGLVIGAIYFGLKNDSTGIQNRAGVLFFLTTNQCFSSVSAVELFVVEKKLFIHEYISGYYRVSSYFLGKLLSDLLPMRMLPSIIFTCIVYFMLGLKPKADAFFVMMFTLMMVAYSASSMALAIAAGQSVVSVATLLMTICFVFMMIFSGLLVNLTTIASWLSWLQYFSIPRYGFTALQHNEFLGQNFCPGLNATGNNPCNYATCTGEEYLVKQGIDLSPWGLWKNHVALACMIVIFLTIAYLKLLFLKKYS
Sequence of ErbB2 with Exon 20 YVMA insertion (HER2-YVMA) (P04626 other isoform, or with tags, fused parts or gaps ins YVMA behind 775): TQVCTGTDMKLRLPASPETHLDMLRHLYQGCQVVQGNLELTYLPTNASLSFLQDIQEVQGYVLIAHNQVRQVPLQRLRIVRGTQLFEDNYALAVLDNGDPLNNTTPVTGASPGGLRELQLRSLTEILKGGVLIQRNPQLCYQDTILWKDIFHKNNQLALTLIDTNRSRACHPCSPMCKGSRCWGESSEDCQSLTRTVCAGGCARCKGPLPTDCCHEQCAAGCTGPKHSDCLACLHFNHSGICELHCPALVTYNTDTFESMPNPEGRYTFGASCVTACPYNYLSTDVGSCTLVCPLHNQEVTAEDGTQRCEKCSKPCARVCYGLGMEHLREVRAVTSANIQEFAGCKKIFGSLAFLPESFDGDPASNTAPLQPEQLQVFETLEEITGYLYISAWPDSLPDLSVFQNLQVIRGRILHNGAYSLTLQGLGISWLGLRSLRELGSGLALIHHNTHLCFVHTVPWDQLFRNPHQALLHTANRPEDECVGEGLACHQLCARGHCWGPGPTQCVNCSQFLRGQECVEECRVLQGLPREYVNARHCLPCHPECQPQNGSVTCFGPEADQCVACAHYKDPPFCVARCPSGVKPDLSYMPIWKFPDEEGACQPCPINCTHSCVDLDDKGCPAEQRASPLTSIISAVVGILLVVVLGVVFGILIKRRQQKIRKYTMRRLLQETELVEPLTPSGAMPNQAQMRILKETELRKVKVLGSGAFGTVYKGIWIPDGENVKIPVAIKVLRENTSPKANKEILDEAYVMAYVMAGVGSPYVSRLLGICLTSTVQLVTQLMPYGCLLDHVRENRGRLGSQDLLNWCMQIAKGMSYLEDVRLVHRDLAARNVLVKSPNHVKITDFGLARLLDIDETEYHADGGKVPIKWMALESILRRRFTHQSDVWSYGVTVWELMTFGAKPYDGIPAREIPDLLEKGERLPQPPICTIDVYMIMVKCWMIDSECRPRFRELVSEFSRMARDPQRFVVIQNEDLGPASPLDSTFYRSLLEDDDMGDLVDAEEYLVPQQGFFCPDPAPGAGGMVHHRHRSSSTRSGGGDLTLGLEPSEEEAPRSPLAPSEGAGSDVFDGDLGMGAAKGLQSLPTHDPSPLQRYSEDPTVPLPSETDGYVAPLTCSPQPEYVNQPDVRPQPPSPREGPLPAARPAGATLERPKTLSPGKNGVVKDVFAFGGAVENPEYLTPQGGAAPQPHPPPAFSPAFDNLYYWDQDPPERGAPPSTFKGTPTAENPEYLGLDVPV
Sequence of EGFR wild type (EGFR WT) (P00533 25-1210): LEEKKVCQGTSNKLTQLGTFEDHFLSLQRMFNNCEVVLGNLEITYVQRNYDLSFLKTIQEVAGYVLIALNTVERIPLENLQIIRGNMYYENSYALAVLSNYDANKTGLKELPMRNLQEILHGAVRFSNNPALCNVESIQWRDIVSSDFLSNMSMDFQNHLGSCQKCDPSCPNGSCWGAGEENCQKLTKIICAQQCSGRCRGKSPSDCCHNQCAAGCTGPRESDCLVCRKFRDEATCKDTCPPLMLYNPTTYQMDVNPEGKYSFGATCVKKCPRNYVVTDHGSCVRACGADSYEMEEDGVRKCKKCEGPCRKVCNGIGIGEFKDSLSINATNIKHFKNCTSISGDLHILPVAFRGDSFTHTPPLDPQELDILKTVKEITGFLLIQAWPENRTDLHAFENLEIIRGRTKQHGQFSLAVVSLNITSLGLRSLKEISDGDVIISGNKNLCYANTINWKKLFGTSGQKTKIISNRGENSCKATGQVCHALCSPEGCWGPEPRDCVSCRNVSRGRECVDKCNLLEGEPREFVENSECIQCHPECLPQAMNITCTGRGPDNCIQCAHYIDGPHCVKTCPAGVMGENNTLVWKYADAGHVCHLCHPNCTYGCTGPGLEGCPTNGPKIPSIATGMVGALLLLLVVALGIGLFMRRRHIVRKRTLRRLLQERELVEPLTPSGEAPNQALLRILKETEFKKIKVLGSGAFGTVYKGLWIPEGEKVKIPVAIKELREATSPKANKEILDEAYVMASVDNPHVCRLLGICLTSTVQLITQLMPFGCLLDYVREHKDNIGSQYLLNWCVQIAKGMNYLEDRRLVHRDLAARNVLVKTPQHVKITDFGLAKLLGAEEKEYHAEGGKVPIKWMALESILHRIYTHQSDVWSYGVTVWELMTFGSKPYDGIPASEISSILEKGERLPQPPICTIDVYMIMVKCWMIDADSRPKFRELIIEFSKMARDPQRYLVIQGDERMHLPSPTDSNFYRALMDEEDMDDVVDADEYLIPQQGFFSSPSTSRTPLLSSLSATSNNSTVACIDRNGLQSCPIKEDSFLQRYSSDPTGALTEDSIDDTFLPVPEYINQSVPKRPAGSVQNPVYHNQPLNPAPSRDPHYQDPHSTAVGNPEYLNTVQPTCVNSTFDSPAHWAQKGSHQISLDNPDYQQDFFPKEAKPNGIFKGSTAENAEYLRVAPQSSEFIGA

Row | efflux ratio at 2 h, 1 µM (BCRP) | pIC50 (EGFR wild type (EGFR WT); [2]) | pIC50 (ErbB2 WT; ErbB2 WT enzyme) | pIC50 ([1]; ErbB2 YVMA phosphorylation) | pIC50 (EGFR; EGFR enzyme) | pIC50 (EGFR wild type (EGFR WT); [3]) | pIC50 (ErbB2 WT; ErbB2 WT enzyme assay) | pIC50 [1, 4] | pIC50 (EGFR; EGFR enzyme assay) | SMILES
1 | 9.5 | – | – | – | – | 6.31 | 7.90 | 7.76 | 6.01 | C=CC(=O)N1CC[C@H]2C[C@H](c3ccc4ncnc(Nc5ccc(Oc6ccn7ncnc7c6)c(C)c5)c4n3)C[C@H]21 [Example 383]
2 | 8.9 | – | – | – | – | 5.70 | 7.71 | 7.71 | 6.05 | C=CC(=O)N1CCN(c2ccc3ncnc(Nc4cc(C)c(Oc5ccc6c(c5)ncn6C)cc4F)c3n2)CC12CC2 [Example 340]
3 | 11.3 | – | – | – | – | 6.37 | 8.09 | 7.82 | 6.31 | C#CC1CN(c2ccc3ncnc(Nc4ccc(Oc5ccn6ncnc6c5)c(C)c4F)c3n2)CCN1C(=O)C=C (stereo not drawn) [Example 322]
4 | 15.6 | – | – | – | – | ≤ 5.30 | 7.12 | 7.15 | ≤ 5.00 | C=CC(=O)N1C[C@H]2C[C@@H]1CN(c1ccc3ncnc(Nc4cc(Cl)c(Oc5ccn6ncnc6c5)cc4F)c3n1)C2 [Example 292]
5 | 7.6 | – | – | – | – | 5.91 | 7.89 | 7.84 | 5.63 | C=CC(=O)N1CCN(c2ccc3ncnc(Nc4ccc(Oc5cc(F)c6c(c5)ncn6C)c(C)c4)c3n2)C[C@H]1CC [Example 282]
6 | 20.3 | – | – | – | – | ≤ 5.30 | 7.53 | 7.76 | ≤ 5.00 | C=CC(=O)N1CCN(c2ccc3ncnc(Nc4ccc(Oc5ccc6c(c5)ncn6C)c(C(F)F)c4)c3n2)CC1 [Example 447]
7 | 14.4 | – | – | – | – | ≤ 5.30 | 7.33 | 7.68 | 5.47 | C=CC(=O)N1[C@H](C)CN(c2ccc3ncnc(Nc4ccc(Oc5cc(F)c6c(c5)ncn6C)c(C)c4)c3n2)C[C@@H]1C [Example 359]

Continued, compound first:

Row | SMILES | efflux ratio at 2 h, 1 µM (BCRP) | pIC50 (EGFR wild type (EGFR WT); [2]) | pIC50 (ErbB2 WT; ErbB2 WT enzyme) | pIC50 ([1]; ErbB2 YVMA phosphorylation) | pIC50 (EGFR; EGFR enzyme) | pIC50 (EGFR wild type (EGFR WT); [3]) | pIC50 (ErbB2 WT; ErbB2 WT enzyme assay) | pIC50 [1, 4] | pIC50 (EGFR; EGFR enzyme assay)
8 | C=CC(=O)N1CC[C@@H](c2ccc3ncnc(Nc4cc(C)c(Oc5ccc6c(c5)ncn6C)cc4F)c3n2)C1 (racemic) [Example 132, rac-(R)-1-(3-(4-((2-fluoro-5-methyl-4-((1-methyl-1H-benzo[d]imidazol-5-yl)oxy)phenyl)amino)pyrido[3,2-d]pyrimidin-6-yl)pyrrolidin-1-yl)prop-2-en-1-one] | 7.9 | ≤ 5.30 | 7.12 | 7.73 | ≤ 5.00 | – | – | – | –
9 | C=CC(=O)N1CC(Sc2ccc3ncnc(Nc4ccc(Oc5ccn6ncnc6c5)c(C)c4F)c3n2)C1 [Example 63, 1-(3-((4-((4-([1,2,4]triazolo[1,5-a]pyridin-7-yloxy)-2-fluoro-3-methylphenyl)amino)pyrido[3,2-d]pyrimidin-6-yl)thio)azetidin-1-yl)prop-2-en-1-one] | 3.8 | 6.37 | 7.50 | 7.71 | 6.29 | – | – | – | –
10 | C=CC(=O)N1C[C@@H]2C[C@H]1CN(c1ccc3ncnc(Nc4cc(Cl)c(Oc5ccc6c(c5)ncn6C)cc4F)c3n1)C2 [Example 248] | 15.2 | ≤ 5.30 | 6.96 | 7.84 | ≤ 5.00 | – | – | – | –
11 | C=CC(=O)N1CCN(c2ccc3ncnc(Nc4ccc(Oc5cnc6c(c5)ncn6C)c(C)c4)c3n2)CC1 [Example 110, 1-(4-(4-((3-methyl-4-((3-methyl-3H-imidazo[4,5-b]pyridin-6-yl)oxy)phenyl)amino)pyrido[3,2-d]pyrimidin-6-yl)piperazin-1-yl)prop-2-en-1-one] | 84.4 | 5.60 | 7.24 | 8.30 | 5.21 | – | – | – | –
12 | C=CC(=O)N1CCN(c2ccc3ncnc(Nc4ccc(Oc5cc(F)c6c(c5)ncn6C)c(C)c4)c3n2)CC1 [Example 276] | 25.2 | – | – | – | – | 6.52 | 8.00 | 8.17 | 6.46
13 | C=CC(=O)N1CCC(c2ccc3ncnc(Nc4ccc(Oc5ccc6c(c5)ncn6C)c(C)c4)c3n2)CC1 [Example 34, 1-(4-(4-((3-methyl-4-((1-methyl-1H-benzo[d]imidazol-5-yl)oxy)phenyl)amino)pyrido[3,2-d]pyrimidin-6-yl)piperidin-1-yl)prop-2-en-1-one] | 6.7 | ≤ 5.30 | 7.54 | 8.02 | 5.16 | – | – | – | –
14 | C=CC(=O)N1CCN(c2ccc3ncnc(Nc4ccc(Oc5ccc6c(c5)ncn6C)c(Cl)c4)c3n2)CC1 [Example 72, 1-(4-(4-((3-chloro-4-((1-methyl-1H-benzo[d]imidazol-5-yl)oxy)phenyl)amino)pyrido[3,2-d]pyrimidin-6-yl)piperazin-1-yl)prop-2-en-1-one] | 15.4 | 6.29 | 8.06 | 8.33 | 6.06 | – | – | – | –
15 | C=CC(=O)N1CCC[C@@H](c2ccc3ncnc(Nc4ccc(Oc5ccc6c(c5)ncn6C)c(C)c4)c3n2)C1 (racemic) [Example 35, 1-(3-(4-((3-methyl-4-((1-methyl-1H-benzo[d]imidazol-5-yl)oxy)phenyl)amino)pyrido[3,2-d]pyrimidin-6-yl)piperidin-1-yl)prop-2-en-1-one] | 2.7 | 5.56 | 8.21 | 7.98 | 5.85 | – | – | – | –
16 | C=CC(=O)N1C[C@H]2CN(c3ccc4ncnc(Nc5ccc(Oc6ccc7c(c6)ncn7C)c(C)c5)c4n3)C[C@H]21 [Example 116, 1-((1R,5S)-3-(4-((3-methyl-4-((1-methyl-1H-benzo[d]imidazol-5-yl)oxy)phenyl)amino)pyrido[3,2-d]pyrimidin-6-yl)-3,6-diazabicyclo[3.2.0]heptan-6-yl)prop-2-en-1-one] | 22.4 | 5.80 | 7.28 | 7.99 | 5.59 | – | – | – | –
17 | C=CC(=O)N1CCN(c2ccc3ncnc(Nc4ccc(Oc5ccn6ncnc6c5)c(Cl)c4)c3n2)CC1 [Example 97, 1-(4-(4-((4-([1,2,4]triazolo[1,5-a]pyridin-7-yloxy)-3-chlorophenyl)amino)pyrido[3,2-d]pyrimidin-6-yl)piperazin-1-yl)prop-2-en-1-one] | 47 | 6.38 | 8.49 | 8.49 | 6.46 | – | – | – | –
18 | C=CC(=O)N1CC(c2ccc3ncnc(Nc4cc(C)c(Oc5ccc6c(c5)ncn6C)cc4F)c3n2)CCC12CC2 (stereo not drawn) [Example 196, 1-(6-(4-((2-fluoro-5-methyl-4-((1-methyl-1H-benzo[d]imidazol-5-yl)oxy)phenyl)amino)pyrido[3,2-d]pyrimidin-6-yl)-4-azaspiro[2.5]octan-4-yl)prop-2-en-1-one] | 2.5 | 5.70 | 7.37 | 7.47 | 5.94 | – | – | – | –
19 | C=CC(=O)N1CCN(c2ccc3ncnc(Nc4ccc(Oc5ccn6ncnc6c5)c(Cl)c4)c3n2)CC1(C)C [Example 74, 1-(4-(4-((4-([1,2,4]triazolo[1,5-a]pyridin-7-yloxy)-3-chlorophenyl)amino)pyrido[3,2-d]pyrimidin-6-yl)-2,2-dimethylpiperazin-1-yl)prop-2-en-1-one] | 6.4 | 6.53 | 8.04 | 8.24 | 5.77 | – | – | – | –
20 | C=CC(=O)N1CCN(c2nc3c(Oc4ccc(Oc5ccc6c(c5)ncn6C)c(C)c4)ncnc3cc2OC)CC1 [Example 41, 1-(4-(7-methoxy-4-(3-methyl-4-((1-methyl-1H-benzo[d]imidazol-5-yl)oxy)phenoxy)pyrido[3,2-d]pyrimidin-6-yl)piperazin-1-yl)prop-2-en-1-one] | 16.7 | ≤ 5.30 | 6.89 | 7.51 | 5.29 | – | – | – | –
21 | C=CC(=O)N1CCCN(c2ccc3ncnc(Nc4ccc(Oc5ccc6c(c5)ncn6C)c(C)c4)c3n2)CC1 [Example 108, 1-(4-(4-((3-methyl-4-((1-methyl-1H-benzo[d]imidazol-5-yl)oxy)phenyl)amino)pyrido[3,2-d]pyrimidin-6-yl)-1,4-diazepan-1-yl)prop-2-en-1-one] | 30.1 | ≤ 5.30 | 7.53 | 8.13 | ≤ 5.00 | – | – | – | –
22 | C=CC(=O)N1CCC(c2ccc3ncnc(Nc4ccc(Oc5cnc6c(c5)ncn6C)c(Cl)c4)c3n2)CC1 [Example 271] | 37 | – | – | – | – | ≤ 5.30 | 7.28 | 7.50 | 5.46
23 | C=CC(=O)N1CCN(c2ccc3ncnc(Nc4ccc(Oc5cc(F)c6c(c5)ncn6C)c(C)c4)c3n2)CC1(C)C [Example 277] | 7.3 | – | – | – | – | 6.01 | 7.63 | 7.90 | 6.00
24 | C=CC(=O)N1C[C@@H]2C[C@H]1CN2c1ccc2ncnc(Nc3cc(Cl)c(Oc4ccn5ncnc5c4)cc3F)c2n1 [Example 80, 1-((1S,4S)-5-(4-((4-([1,2,4]triazolo[1,5-a]pyridin-7-yloxy)-5-chloro-2-fluorophenyl)amino)pyrido[3,2-d]pyrimidin-6-yl)-2,5-diazabicyclo[2.2.1]heptan-2-yl)prop-2-en-1-one] | 12.4 | 6.61 | 7.77 | 8.39 | 6.66 | – | – | – | –
